Experimental data from US20240199997A1, “COMPOSITIONS COMPRISING A META-(C1-C4 ALKOXY) […]” (The Procter & Gamble Company, priority 2022, published 2024).
Like-named read-outs stand apart in the source and are kept apart here.

Columns and labels:
[1] = Headspace Method (dynamic headspace GC/MS), solution in propylene glycol monomethyl ether (DPM); type: physicochemical; settings: for Air/DPM partition coef (ng/mL in air per ng/mL in DPM) / Headspace: 30° C.; for Headspace: above DPM solution of 1.1E+07 ng/mL
Description: (§1) Perfume headspace data is collected for various materials according to the method provided below.
(§2) The partition coefficients are calculated by determining the amount of PRM in the headspace above a solution with a known concentration using a GC/FID-MS (Agilent 7890 and 5977A MSD) with a thermal desorption unit (Gerstel MPS2) and Dynamic Headspace Sampler (Gerstel DHS). This technique allows for automated headspace collections using the MultiPurposeSampler (MPS). The PRMs of interest are prepared at a known concentration in isopropyl myristate (IPM) or propylene glycol monomethyl ether (DPM), and 1 mL is pipetted in a 20 mL headspace vial.
(§3) DHS Conditions: The sample is tempered in the unit at 30° C. A helium stream at 10 mls/min purges 20 mL of headspace containing the analytes above the sample onto the sorbent tube (TDU) containing 25 mg of TenaxTA 35/60 (Restek cat #25701).
(§4) TDU conditions: The sorbent tube is desorbed with a program starting at 30° C. solvent vent for 2 min then ramped at 720° C./min to 270° C. and held for 8 min. The analytes are refocused on a glass bead liner at −60° C. then desorbed at a rate of 12° C./s to 270° C. onto the GC column.
(§5) GC/MS conditions: Agilent 122-5532UI column of 30 m×250 μm×0.25 μm and a flow rate of 1.5mL/min is utilized. A temperature program of 50° C. to 280° C. with a 2 min hold and a ramp rate of 12° C./min is suitable. Scan or SIM mode MSD parameters with a solvent delay for the DPM are applied to achieve appropriate detection.
(§6) Analytical standards can be obtained from Sigma Aldrich, St. Louis, MO and BioSynth, UK. A stock solution is prepared at approximately 0.5 g/L. The stock solution is then diluted to 4 to 5 concentrations ranging from approximately 0.05 g/L to 0.00005 g/L. These standard solutions are then analyzed by GC/MS. This analysis is performed by using the same TDU desorption and GC/MS conditions described above with a 1 uL liquid injection onto the TDU tube instead of the DHS collection. The amount injected on column and the area responses of the target m/z are utilized to create a calibration plot with a linear fit.
(§7) Quantification of the headspace is performed by the PRM target m/z area response of the perfume component and the linear equation of the calibration plot.
(§8) Perfume headspace data is collected for various materials according to the Headspace Method provided above in the Test Methods section. The Air/Solvent partition coefficients are determined and indexed accordingly (e.g., where the partition coefficient for ethylvanillin is set at 1.00).

[2] = Headspace Method (dynamic headspace GC/MS), solution in isopropyl myristate (IPM); type: physicochemical; settings: for Air/IPM partition coef (ng/mL in air per ng/mL in IPM) / Headspace: 30° C.; for Headspace: above IPM solution of about 2.1E+06 ng/mL
Description: as §1, §2, §3, §4, §5, §6, §7, §8

Row | Air/DPM partition coef (ng/mL in air per ng/mL in DPM) ([1]; average of three replicates) | Headspace ([1]; average of three replicates) | goes into the headspace more than ethylvanillin ([1]; out of DPM) | Air/IPM partition coef (ng/mL in air per ng/mL in IPM) ([2]; average of two replicates) | Headspace ([2]; average of two replicates) | goes into the headspace more than its structural isomer ethylvanillin ([2]; out of IPM) | Ethylvanillin Indexed Air/IPM partition coefficient [2] | SMILES | Ethylvanillin Indexed Air/DPM partition coefficient ([1]; partition coefficient for ethylvanillin set at 1.00, average of three replicates) | Ethylvanillin Indexed Air/IPM partition coefficient ([2]; partition coefficient for ethylvanillin set at 1.00, average of two replicates)
1 | 2.31E−07 ng/mL in air per ng/mL in DPM | 2.4678 ng/mL | about 94 × | 1.21E−07 ng/mL in air per ng/mL in IPM | 0.2521 ng/mL | about 6.2 × | – | CCOc1cccc(C=O)c1O [ortho-Ethylvanillin, 2-hydroxy-3-ethoxybenzaldehyde] | – | –
2 | 1.21E−08 ng/mL in air per ng/mL in DPM | 0.1288 ng/mL | – | 2.73E−08 ng/mL in air per ng/mL in IPM | 0.0563 ng/mL | – | 1.40 | COc1cc(C=O)ccc1O [Vanillin] | – | –

Row | SMILES | Air/DPM partition coef (ng/mL in air per ng/mL in DPM) ([1]; average of three replicates) | Headspace ([1]; average of three replicates) | goes into the headspace more than ethylvanillin ([1]; out of DPM) | Air/IPM partition coef (ng/mL in air per ng/mL in IPM) ([2]; average of two replicates) | Headspace ([2]; average of two replicates) | goes into the headspace more than its structural isomer ethylvanillin ([2]; out of IPM) | Ethylvanillin Indexed Air/IPM partition coefficient [2] | Ethylvanillin Indexed Air/DPM partition coefficient ([1]; partition coefficient for ethylvanillin set at 1.00, average of three replicates) | Ethylvanillin Indexed Air/IPM partition coefficient ([2]; partition coefficient for ethylvanillin set at 1.00, average of two replicates)
3 | CCOc1cc(C=O)ccc1O [Ethylvanillin] | 2.45E−09 ng/mL in air per ng/mL in DPM | 0.0262 ng/mL | – | 1.95E−08 ng/mL in air per ng/mL in IPM | 0.0402 ng/mL | – | – | 1.00 | 1.00
